{
  "source": "paper PMC9276676",
  "about": "“Difluoromethylornithine (DFMO) and AMXT 1501 inhibit capsule biosynthesis in pneumococci” (Scientific Reports, 2022)",
  "format_in_all_cases": "cell-based, Streptococcus pneumoniae",
  "key": {"[1]": {"test_system": "S. pneumoniae serotype 4 (TIGR4)", "assay": "DFMO susceptibility and growth in THY (OD600, MIC)", "design": "Growthrate: unit not given here", "protocol": "(§1) S. pneumoniae serotypes 4 (TIGR4), 2 (D39), 19F (EF3030) and 3 (WU2) were cultured in Todd Hewitt broth supplemented with yeast extract (THY). Supplementation with DFMO ranging from 1.1 to 549 mM was carried out in triplicate in a 96-well plate and incubated at 37 °C and 5% CO2 in a Cytation™ 5 cell imaging multi-mode reader (BioTek, Winooski, VT). The change in optical density at 600 nm (OD600) was measured every hour for 24 h and used to determine the minimum inhibitory concentration (MIC) of DFMO. The optical density data was analyzed using GrowthRates 4.0 software. To determine whether DFMO at sub-MIC is bacteriostatic or lethal to pneumococcal cells, all strains were cultured in the presence or absence of 1/2 MIC DFMO. OD600 was measured every hour and CFU were enumerated on a blood agar plate (BAP) every 2 h over an 8 h incubation period."}, "[2]": {"test_system": "D39", "assay": "Viability/replication at 1/2 MIC DFMO (CFU on blood agar)", "details": "1/2 MIC DFMO (137 mM)", "protocol": "as §1"}, "[3]": {"test_system": "EF3030", "assay": "Viability/replication at 1/2 MIC DFMO (CFU on blood agar)", "details": "1/2 MIC DFMO (137 mM)", "protocol": "as §1"}, "[4]": {"test_system": "TIGR4", "assay": "Viability/replication at 1/2 MIC DFMO (CFU on blood agar)", "details": "1/2 MIC DFMO (137 mM)", "protocol": "as §1"}, "[5]": {"test_system": "S. pneumoniae D39", "protocol": "This was done to directly compare possible changes in intracellular concentrations of polyamines and capsule precursors as a result of DFMO inhibition of polyamine synthesis to the earlier report where polyamine synthesis was affected via gene deletion in TIGR4[24]. […] Cells were harvested (5000×g, 10 min, 4 °C), re-suspended in extraction solvent [40% acetonitrile, 40% methanol, 20% water with formic acid (0.1 M)] and transferred to bead-beater tubes (MP Biomedicals, Irvine, CA, USA). Cells were lysed using a FastPrep-24™ Classic (45 s, 6.5 m/s, RT, 3 times) (MP Biomedicals, Irvine, CA, USA) and incubated on ice (5 min after each spin). TIGR4 lysates were clarified (6000×g, 5 min, 4 °C), and metabolite differentiation and detection were performed using published protocols[28],[29]. Liquid chromatography-mass spectrometry-based (LC–MS) metabolomic analysis was performed with an Agilent Accurate Mass 6230 TOF coupled with an Agilent 1290 LC system using a Cogent Diamond Hydride Type C column. Briefly, the mobile phase consisted of the following: solvent A (ddH2O with 0.2% formic acid) and solvent B (acetonitrile with 0.2% formic acid). The gradient used was as follows: 0–2 min, 85% B; 3–5 min, 80% B; 6–7 min, 75% B; 8–9 min, 70% B; 10–11.1 min, 50% B; 11.1–14 min 20% B; 14.1–24 min 5% B followed by a 10 min re-equilibration period at 85% B at a flow rate of 0.4 mL/min. Mass axis dynamics was calibrated by continuous infusion of a reference mass solution using an isocratic pump. […] Metabolite identities were searched for using a mass tolerance of < 0.005 Da. Metabolite concentrations from the 5 biological replicates were normalized to biomass based on measurement of residual peptide content in individual samples using the Pierce BCA Protein Assay kit (Thermo Fisher Scientific, Waltham, MA, USA). Data were analyzed using Profinder B.07.00 software (Agilent Technologies, Santa Clara, CA, USA). Extracted molecular features detected in the mass analyzer were identified using accurate mass values and used to generate empirical molecular formulae using an in-house metabolite database that included known intermediates, amino acid precursors and polyamines and their derivatives. Statistical analysis of metabolite peak intensity data was performed using MetaboAnalyst 4.0[30]. Data were normalized (quantile), log transformed and significant fold change between WT and DFMO-treated WT were identified by Student’s t-test (p ≤ 0.05).\nTo measure the polyamines, glucose and glucuronic acid in D39, TSQ Quantum Access triple-quadrupole tandem mass spectrometer (Thermo Fisher Scientific, Waltham, MA, USA) equipped with acquity UPLC system (Waters, Milford, MA, USA) was operated in positive and negative ion mode. Chromatographic separation was performed on Cogent Diamond Hydride HPLC column (2.1 mm × 150 mm, 4 μm) coupled with Congent Diamond Hydride HPLC Guard column (2.0 mm × 10 mm, 4 μm). The flow rate was 500 µL/min, the sample injection volume was 10 µL, and the column temperature was at 40 °C. The mobile phase A was composed of water with 0.1% v/v formic acid, and mobile phase B was composed of acetonitrile with 0.1% v/v formic acid. The gradient condition was 0 min (5% A, 95% B), 1 min (5% A, 95% B), 4.0 min (30% A, 70% B), 6 min (95% A, 5% B), 6.5 min (95% A, 5% B), 7 min (5% A, 95% B), and 10 min (5% A, 95%B). The total run time was 10 min, and the column eluate directed into the mass spectrometer using an electrospray ionization interface in positive and negative modes. The MS conditions were set as follow: spray voltage = 3500 V, vaporizer temperature = 350 °C, sheath gas = 25 psi, auxiliary gas = 10 psi, and capillary temperature = 350 °C. Samples were run in selected reaction monitoring (SRM) mode, and the optimized MS/MS parameters for ionization are given in Table 1."}, "[6]": {"details": "DFMO 34 mM, agmatine 20 mM, AMXT 1501 7.4 µM, p-value in bracket omitted"}},
  "data": [
    {"smiles": "NCCC[C@](N)(C(=O)O)C(F)F", "note": "[DFMO, α-difluoromethylornithine]", "values": [
      {"measurement": "difference in growth rate in presence or absence of DFMO (GrowthRates software)", "setting": "[1]", "value": "did not identify any significant differences"},
      {"measurement": "Growthrate", "setting": "[1]; DFMO 0.2 µg/µL", "value": 0.055},
      {"measurement": "Max OD", "setting": "[1]; DFMO 0.2 µg/µL", "value": 1.583},
      {"measurement": "Growthrate", "setting": "[1]; DFMO 0.4 µg/µL", "value": 0.056},
      {"measurement": "Max OD", "setting": "[1]; DFMO 0.4 µg/µL", "value": 1.619},
      {"measurement": "Growthrate", "setting": "[1]; DFMO 0.8 µg/µL", "value": 0.056},
      {"measurement": "Max OD", "setting": "[1]; DFMO 0.8 µg/µL", "value": 1.657},
      {"measurement": "Growthrate", "setting": "[1]; DFMO 1.6 µg/µL", "value": 0.057},
      {"measurement": "Max OD", "setting": "[1]; DFMO 1.6 µg/µL", "value": 1.695},
      {"measurement": "Growthrate", "setting": "[1]; DFMO 3.1 µg/µL", "value": 0.056},
      {"measurement": "Max OD", "setting": "[1]; DFMO 3.1 µg/µL", "value": 1.654},
      {"measurement": "Growthrate", "setting": "[1]; DFMO 6.3 µg/µL", "value": 0.055},
      {"measurement": "Max OD", "setting": "[1]; DFMO 6.3 µg/µL", "value": 1.635},
      {"measurement": "Growthrate", "setting": "[1]; DFMO 12.5 µg/µL", "value": 0.056},
      {"measurement": "Max OD", "setting": "[1]; DFMO 12.5 µg/µL", "value": 1.560},
      {"measurement": "Growthrate", "setting": "[1]; DFMO 25.0 µg/µL", "value": 0.052},
      {"measurement": "Max OD", "setting": "[1]; DFMO 25.0 µg/µL", "value": 1.280},
      {"measurement": "Growthrate", "setting": "[1]; DFMO 50.0 µg/µL", "value": 0.000},
      {"measurement": "Max OD", "setting": "[1]; DFMO 50.0 µg/µL", "value": 0.000},
      {"measurement": "Growthrate", "setting": "[1]; DFMO 100.0 µg/µL", "value": 0.000},
      {"measurement": "Max OD", "setting": "[1]; DFMO 100.0 µg/µL", "value": 0.000},
      {"measurement": "effect on viability (viability curves)", "setting": "[2]", "value": "some bacteriostatic effect"},
      {"measurement": "effect on viability (viability curves)", "setting": "[3]", "value": "some bacteriostatic effect"},
      {"measurement": "effect on viability (viability curves)", "setting": "[4]", "value": "some bacteriostatic effect"},
      {"measurement": "intracellular glucose (peak intensity)", "setting": "[5]; 1/8 MIC DFMO (34 mM), 1/2 MIC AMXT 1501 (7.4 µM)", "value": "significantly reduced"},
      {"measurement": "intracellular glucuronic acid (peak intensity)", "setting": "[5]; 1/8 MIC DFMO (34 mM), 1/2 MIC AMXT 1501 (7.4 µM), separately or in combination", "value": "significantly depleted"},
      {"measurement": "Agmatine, fold change treated D39 /D39", "setting": "[5]; [6]", "value": "-1.3 (2.13E05)"},
      {"measurement": "Cadaverine, fold change treated D39 /D39", "setting": "[5]; [6]", "value": "-0.8 (0.004)"},
      {"measurement": "Lysine, fold change treated D39 /D39", "setting": "[5]; [6]", "value": "-0.2 (0.018)"},
      {"measurement": "N-acetyl spermidine, fold change treated D39 /D39", "setting": "[5]; [6]", "value": "-0.6 (0.094)"},
      {"measurement": "N-carbamoyl putrescine, fold change treated D39 /D39", "setting": "[5]; [6]", "value": "-1.6 (0.026)"},
      {"measurement": "Ornithine, fold change treated D39 /D39", "setting": "[5]; [6]", "value": "0.4 (0.004)"},
      {"measurement": "Putrescine, fold change treated D39 /D39", "setting": "[5]; [6]", "value": "-0.4 (0.015)"},
      {"measurement": "Spermidine, fold change treated D39 /D39", "setting": "[5]; [6]", "value": "0.3 (0.309)"},
      {"measurement": "Spermine, fold change treated D39 /D39", "setting": "[5]; [6]", "value": "-0.7 (0.002)"}
    ]}
  ]
}
